Laboratory results taken from patent publication US20220218714A1, “METHOD OF TREATING CANCER” (Epizyme, Inc., priority 2013, published 2022).

Tested on: H3K27me3 in HS-SY-II xenograft
Test: PD alterations in HS-SY-II xenograft model (tumor H3K27me3 ELISA, 7 days)
Assay type: in vivo, mice
Conditions: for Mean 2 (H3K27me3 level in tumor, fold change to vehicle): vehicle mean = 1; for Mean Diff. (vehicle vs. treated, tumor H3K27me3): Dunnett's multiple comparisons test; for Significant? (vehicle vs. treated, tumor H3K27me3): Dunnett's test, alpha 0.05
Protocol: HS-SY-II cells were harvested during mid-log phase growth, and resuspended in Hank balanced salt solution with 50% Matrigel (BD Biosciences). Balb/C-nu mice (Charles River Laboratories Japan) received 1×10^7 cells (0.1 mL cell suspension) subcutaneously in the right flank. Mice carrying tumors of approximately 200 mm^3 (31 days after injection) were sorted into treatment groups with similar mean tumor volumes. Compound A or vehicle (0.5% MC+0.1% Tween-80 in water) was administered at the indicated doses on twice a day for 7 days by oral gavage. Each dose was delivered in a volume of 0.2 mL/20 g mouse (10 mL/kg), and adjusted for the last recorded weight of individual animals. Peripheral blood samples were collected at approximately 5 minutes before and 3 hours after the last dose from Compound A-treated mice. After obtaining plasma samples by centrifugation, the analysis for plasma concentrations of Compound A was conducted by the liquid chromatography-tandem mass spectrometry (LC/MS/MS) method. The UPLC system (Acquity, Waters) equipped with a mass spectrometer (Quattro premier, MICROMASS) was used for quantification of Compound A. The concentrations are plotted (n=5) in FIG. 7A. Each bar represents a mean of plasma concentration in each group.
For FIG. 10D, tumors were snap-frozen in liquid nitrogen. Frozen tumor samples were cut into a 20 mg pieces and placed in 500 μL of ice cold nuclear extraction buffer (10 mM Tris-HCl, 10 mM MgCl2, 25 mM KCl, 1% Triton X-100, 8.6% Sucrose, plus lx Halt Protease inhibitor cocktail (1861281, Thermo Scientific)) and homogenized with a handy micro homogenizer. Nuclei were collected by centrifugation at 600 g for 5 minutes at 4° C. and washed once with ice cold PBS. Supernatant was removed and histones extracted for one hour with 100 μL, of 0.4 N cold sulfuric acid. Extracts were clarified by centrifugation at 10,000 g for 10 minutes at 4° C. and transferred to a fresh microcentrifuge tube containing 1 mL of ice cold acetone. Histones were precipitated at -20° C. for overnight, pelleted by centrifugation at 10,000 g for 10 minutes and resuspended in 100 p1 of water. Histones were quantified using the BCA protein assay (23225, Pierce). The diluted histones were coated on Immulon 4HBX plates (3855, Thermo Scientific) overnight and ELISA was performed. Briefly, after blocking with PBS containing 0.05% Tween 20 and 2% bovine serum albumin (BSA), the plates were incubated with H3K27me3 antibody (#9733, Cell Signaling Technology) or total histone H3 antibody (AB1791, Abcam). The plates were further incubated with horseradish peroxidase conjugated anti-rabbit IgG (#7074, Cell Signaling Technology), followed by incubated with TMB substrate (TMBS-0100-01, BioFx Laboratories). Subsequently, the developed colors in the wells were measured using a plate spectrophotometer (SpectraMax 250, Molecular Devices) at 450 nm (reference wavelength 650 nm). The H3K27me3 levels were adjusted to total histone H3, and expressed as fold changes to vehicle control. The values are plotted (n=6) in FIG. 10D. Each bar represents a mean of the values in each group. […] Histones were extracted and quantified, and the levels of H3K27me3 were analyzed as described above. Trimethylation levels of H3K27 in the tumor are plotted (n=5) in FIG. 7B. Each bar represents a mean ±SEM of the trimethylation level in each group.

[1] = tumor H3K27me3 across dose groups (FIG. 7B)

CCN(c1cc(-c2ccc(CN3CCOCC3)cc2)cc(C(=O)NCc2c(C)cc(C)[nH]c2=O)c1C)C1CCOCC1 [Compound A]
Mean 2 (H3K27me3 level in tumor, fold change to vehicle) (125 mg/kg oral twice daily 7 days): 0.7
Mean Diff. (vehicle vs. treated, tumor H3K27me3) (125 mg/kg): 0.3
Significant? (vehicle vs. treated, tumor H3K27me3) (125 mg/kg): Yes
Mean 2 (H3K27me3 level in tumor, fold change to vehicle) (250 mg/kg oral twice daily 7 days): 0.55
Mean Diff. (vehicle vs. treated, tumor H3K27me3) (250 mg/kg): 0.45
Significant? (vehicle vs. treated, tumor H3K27me3) (250 mg/kg): Yes
Mean 2 (H3K27me3 level in tumor, fold change to vehicle) (500 mg/kg oral twice daily 7 days): 0.304
Mean Diff. (vehicle vs. treated, tumor H3K27me3) (500 mg/kg, listed as E7435): 0.696
Mean Diff. (vehicle vs. treated, tumor H3K27me3) (500 mg/kg, listed as E7438): 0.896
Significant? (vehicle vs. treated, tumor H3K27me3) (500 mg/kg): Yes
H3K27me3 levels in tumor tissues (oral twice daily for 7 days): dose dependent decrease
Is linear trend significant (P <0.05)? [1]: Yes
Post test for linear trend: R squared [1]: 0.9104
Post test for linear trend: Slope [1]: −0.1119
